Read-outs that look alike come from different tables or passages of the source.
Biological target: human Cav2.2 (Homo sapiens, UniProt Q00975)
Experiment: Assessment of calcium channel activity using FLIPR (Ca2+ influx in IMR32 cells)
Type: cell-based
Summary of the method: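 Human neuroblastoma IMR32 cells were seeded at 1−1.2×10^5 cells/well and cultured 48 h at 37 °C before FLIPR calcium influx measurement. Percent inhibition at each concentration was calculated against the no-inhibitor signal, and IC50 came from sigmoidal dose-response fits.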

[1] = read-out: IC50 (μM) or percent inhibition (* indicates 3 minute incubation, otherwise 60 minute), IC50, 60 minute pre-incubation with compound, IMR32 cells, 80 mM KCl depolarization

Sequence of human Cav2.2 (Q00975 whole entry): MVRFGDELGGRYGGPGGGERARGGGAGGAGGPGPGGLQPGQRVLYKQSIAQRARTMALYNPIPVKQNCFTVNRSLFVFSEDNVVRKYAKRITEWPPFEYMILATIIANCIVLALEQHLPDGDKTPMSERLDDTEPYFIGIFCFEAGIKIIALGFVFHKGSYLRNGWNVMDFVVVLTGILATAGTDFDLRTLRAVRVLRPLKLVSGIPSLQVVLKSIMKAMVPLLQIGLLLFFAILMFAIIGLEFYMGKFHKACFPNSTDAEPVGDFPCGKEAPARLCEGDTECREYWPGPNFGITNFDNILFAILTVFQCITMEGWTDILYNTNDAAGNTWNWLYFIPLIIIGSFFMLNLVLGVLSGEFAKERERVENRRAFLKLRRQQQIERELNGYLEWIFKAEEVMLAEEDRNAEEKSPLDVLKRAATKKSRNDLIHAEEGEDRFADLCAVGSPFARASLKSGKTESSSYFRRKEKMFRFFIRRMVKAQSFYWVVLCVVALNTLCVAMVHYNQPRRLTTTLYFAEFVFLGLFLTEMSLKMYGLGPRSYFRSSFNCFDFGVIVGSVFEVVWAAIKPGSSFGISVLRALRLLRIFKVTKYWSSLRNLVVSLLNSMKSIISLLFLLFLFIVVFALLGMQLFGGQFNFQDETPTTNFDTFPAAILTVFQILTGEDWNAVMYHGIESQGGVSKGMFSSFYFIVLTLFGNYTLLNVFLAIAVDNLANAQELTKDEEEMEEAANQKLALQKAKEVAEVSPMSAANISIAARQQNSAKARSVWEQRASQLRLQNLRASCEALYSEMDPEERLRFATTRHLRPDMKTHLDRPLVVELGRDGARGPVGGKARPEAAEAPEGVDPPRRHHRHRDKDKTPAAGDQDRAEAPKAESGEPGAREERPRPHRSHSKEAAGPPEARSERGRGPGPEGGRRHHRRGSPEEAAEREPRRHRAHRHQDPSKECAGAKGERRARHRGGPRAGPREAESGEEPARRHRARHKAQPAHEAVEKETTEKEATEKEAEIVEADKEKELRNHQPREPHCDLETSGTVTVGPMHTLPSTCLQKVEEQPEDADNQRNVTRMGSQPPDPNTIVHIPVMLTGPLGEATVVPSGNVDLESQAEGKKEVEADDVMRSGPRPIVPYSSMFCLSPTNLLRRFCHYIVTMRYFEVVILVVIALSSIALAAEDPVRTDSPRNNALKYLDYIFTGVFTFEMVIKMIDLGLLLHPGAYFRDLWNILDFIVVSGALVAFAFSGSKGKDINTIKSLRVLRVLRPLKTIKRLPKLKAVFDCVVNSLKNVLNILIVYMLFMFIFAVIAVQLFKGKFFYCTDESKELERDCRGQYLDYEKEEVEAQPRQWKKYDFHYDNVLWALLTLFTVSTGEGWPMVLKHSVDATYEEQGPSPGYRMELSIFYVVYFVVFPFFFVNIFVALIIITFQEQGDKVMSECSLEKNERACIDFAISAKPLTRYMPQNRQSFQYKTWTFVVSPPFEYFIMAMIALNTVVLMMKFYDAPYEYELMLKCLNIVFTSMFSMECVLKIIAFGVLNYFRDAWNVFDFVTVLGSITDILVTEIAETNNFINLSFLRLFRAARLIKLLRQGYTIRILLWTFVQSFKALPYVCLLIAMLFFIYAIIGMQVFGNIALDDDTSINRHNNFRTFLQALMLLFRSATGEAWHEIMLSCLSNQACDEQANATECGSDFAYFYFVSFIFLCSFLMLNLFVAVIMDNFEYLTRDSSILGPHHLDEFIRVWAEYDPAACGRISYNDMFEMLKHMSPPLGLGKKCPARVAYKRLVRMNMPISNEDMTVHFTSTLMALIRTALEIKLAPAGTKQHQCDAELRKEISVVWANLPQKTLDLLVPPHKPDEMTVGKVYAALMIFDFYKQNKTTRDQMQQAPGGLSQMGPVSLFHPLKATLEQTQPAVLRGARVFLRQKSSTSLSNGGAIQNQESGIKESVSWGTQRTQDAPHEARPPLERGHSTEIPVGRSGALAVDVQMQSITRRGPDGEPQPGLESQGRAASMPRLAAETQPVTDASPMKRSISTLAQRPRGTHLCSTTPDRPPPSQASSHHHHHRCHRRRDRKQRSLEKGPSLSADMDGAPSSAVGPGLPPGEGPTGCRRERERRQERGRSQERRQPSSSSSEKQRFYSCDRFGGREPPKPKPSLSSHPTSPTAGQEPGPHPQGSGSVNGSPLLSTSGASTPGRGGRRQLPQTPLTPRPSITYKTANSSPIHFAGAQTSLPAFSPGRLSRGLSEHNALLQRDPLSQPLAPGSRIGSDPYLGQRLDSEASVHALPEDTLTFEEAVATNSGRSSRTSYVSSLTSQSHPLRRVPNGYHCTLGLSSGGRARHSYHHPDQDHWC
Sequence of human Cav2.2 (P54289 25-956 partner limits assumed): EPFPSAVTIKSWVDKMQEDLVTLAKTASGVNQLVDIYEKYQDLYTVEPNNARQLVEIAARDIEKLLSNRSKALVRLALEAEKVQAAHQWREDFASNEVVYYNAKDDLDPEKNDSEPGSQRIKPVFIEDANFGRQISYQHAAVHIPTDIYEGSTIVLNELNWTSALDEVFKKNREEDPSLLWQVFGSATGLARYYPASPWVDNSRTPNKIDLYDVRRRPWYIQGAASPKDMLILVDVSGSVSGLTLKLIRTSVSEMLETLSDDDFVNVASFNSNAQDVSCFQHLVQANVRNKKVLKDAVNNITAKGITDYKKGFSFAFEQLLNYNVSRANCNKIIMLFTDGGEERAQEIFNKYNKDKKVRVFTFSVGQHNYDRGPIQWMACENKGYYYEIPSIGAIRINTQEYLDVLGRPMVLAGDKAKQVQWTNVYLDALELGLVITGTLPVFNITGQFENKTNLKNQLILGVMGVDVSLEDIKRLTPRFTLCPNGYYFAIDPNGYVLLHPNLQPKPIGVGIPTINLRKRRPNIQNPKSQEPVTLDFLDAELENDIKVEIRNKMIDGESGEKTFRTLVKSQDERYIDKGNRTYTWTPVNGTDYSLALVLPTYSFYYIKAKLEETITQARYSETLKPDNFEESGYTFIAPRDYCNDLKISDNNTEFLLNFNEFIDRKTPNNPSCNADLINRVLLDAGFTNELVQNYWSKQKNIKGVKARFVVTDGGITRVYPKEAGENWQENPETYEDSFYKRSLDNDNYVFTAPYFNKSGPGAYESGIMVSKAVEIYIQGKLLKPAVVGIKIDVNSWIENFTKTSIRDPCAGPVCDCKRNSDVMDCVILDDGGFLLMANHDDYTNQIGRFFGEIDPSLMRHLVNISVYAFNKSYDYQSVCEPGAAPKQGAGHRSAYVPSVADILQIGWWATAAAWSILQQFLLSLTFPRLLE
Sequence of human Cav2.2 (P54289 957-1103 partner limits assumed): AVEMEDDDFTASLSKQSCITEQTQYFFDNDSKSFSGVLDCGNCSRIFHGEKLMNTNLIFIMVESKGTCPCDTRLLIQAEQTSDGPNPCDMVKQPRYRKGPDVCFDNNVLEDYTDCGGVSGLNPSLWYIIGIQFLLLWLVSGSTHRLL
Sequence of human Cav2.2 (P54284 whole entry partner): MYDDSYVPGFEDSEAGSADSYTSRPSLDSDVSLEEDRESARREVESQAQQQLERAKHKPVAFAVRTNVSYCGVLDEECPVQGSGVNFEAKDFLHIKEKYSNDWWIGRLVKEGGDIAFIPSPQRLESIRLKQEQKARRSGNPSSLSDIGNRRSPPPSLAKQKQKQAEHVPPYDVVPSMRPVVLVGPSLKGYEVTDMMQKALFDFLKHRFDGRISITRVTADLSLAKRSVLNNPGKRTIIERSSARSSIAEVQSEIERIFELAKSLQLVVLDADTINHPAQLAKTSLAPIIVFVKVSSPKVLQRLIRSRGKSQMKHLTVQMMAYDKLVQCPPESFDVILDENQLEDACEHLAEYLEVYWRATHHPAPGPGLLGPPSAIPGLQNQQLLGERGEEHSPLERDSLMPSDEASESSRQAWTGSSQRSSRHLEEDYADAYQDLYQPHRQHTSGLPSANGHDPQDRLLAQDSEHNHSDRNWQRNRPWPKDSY

SMILES	IC50 [µM]	IC50 [1] [µM]
Fc1ccc2c(CN[C@H]3CC[C@@H]4CN(c5cccc(C(F)(F)F)n5)C[C@@H]43)c[nH]c2c1 [Example 686, (3aR,4S,6aS)-N-[(6-fluoro-1H-indol-3-yl)methyl]-2-[6-(trifluoromethyl)pyridin-2-yl]octahydrocyclopenta[c]pyrrol-4-amine]	0.88	
FC(F)(F)c1cccc(N2C[C@H]3CC[C@H](NCc4cc5ccccc5[nH]4)[C@H]3C2)n1 [Example 612, (3aR,4S,6aS)-N-(1H-indol-2-ylmethyl)-2-[6-(trifluoromethyl)pyridin-2-yl]octahydrocyclopenta[c]pyrrol-4-amine]	2.24	
O=C(N[C@H]1CC[C@@H]2CN(c3cccc(C(F)(F)F)n3)C[C@@H]21)c1cc2cc(F)ccc2[nH]1 [Example 697, 5-fluoro-N-{(3aR,4S,6aS)-2-[6-(trifluoromethyl)pyridin-2-yl]octahydrocyclopenta[c]pyrrol-4-yl}-1H-indole-2-carboxamide]	2.24	
O=S(=O)(N[C@H]1CC[C@H]2CN(CCCCO)C[C@H]21)c1cccc(C(F)(F)F)c1 [Example 195, N-[(3aS,4S,6aR)-2-(4-hydroxybutyl)octahydrocyclopenta[c]pyrrol-4-yl]-3-(trifluoromethyl)benzenesulfonamide]		22.1
N#Cc1cccc(N2C[C@H]3CC[C@H](NC(=O)[C@@H]4C[C@@H](F)CN4)[C@H]3C2)c1 [Example 632, (4R)-N-[(3aR,4S,6aS)-2-(3-cyanophenyl)octahydrocyclopenta[c]pyrrol-4-yl]-4-fluoro-L-prolinamide]	18.9	
O=C(N[C@H]1CC[C@@H]2CN(c3cccc(C(F)(F)F)n3)C[C@@H]21)[C@@H]1CC(F)(F)CN1 [Example 595, 4,4-difluoro-N-{(3aR,4S,6aS)-2-[6-(trifluoromethyl)pyridin-2-yl]octahydrocyclopenta[c]pyrrol-4-yl}-L-prolinamide]	2.18	
O=C(N[C@@H]1CC[C@H]2CN(CCCC(c3ccc(F)cc3)c3ccc(F)cc3)C[C@H]21)C(C1CCCCC1)C1CCCCC1 [Example 81, N-{(3aS,4R,6aR)-2-[4,4-bis(4-fluorophenyl)butyl]octahydrocyclopenta[c]pyrrol-4-yl}-2,2-dicyclohexylacetamide]		1.13
O=C(CCCCC(c1ccc(F)cc1)c1ccc(F)cc1)N[C@@H]1CC[C@H]2CN(Cc3cccc(C(F)(F)F)c3)C[C@H]21 (relative stereo) [Example 140, 6,6-bis(4-fluorophenyl)-N-{(3aS*,4R*,6aR*)-2-[3-(trifluoromethyl)benzyl]octahydrocyclopenta[c]pyrrol-4-yl}hexanamide]		0.62
O=C(N[C@H]1CC[C@H]2CN(CCCc3cccc(Cl)c3)C[C@H]21)C(C1CCCCC1)C1CCCCC1 [Example 67, N-{(3aS,4S,6aR)-2-[3-(3-chlorophenyl)propyl]octahydrocyclopenta[c]pyrrol-4-yl}-2,2-dicyclohexylacetamide]		1.32
O=C(N[C@H]1CC[C@H]2CN(C(c3ccccc3)c3ccccc3)C[C@H]21)C(C1CCCCC1)C1CCCCC1 [Example 120, N-[(3aS,4S,6aR)-2-benzhydryloctahydrocyclopenta[c]pyrrol-4-yl]-2,2-dicyclohexylacetamide]		3.44
O=S(=O)(c1ccc(C(F)(F)F)cc1)N1C[C@H]2CC[C@H](NCc3cc4cc(F)ccc4[nH]3)[C@H]2C1 [Example 654, (3aR,4S,6aS)-N-[(5-fluoro-1H-indol-2-yl)methyl]-2-{[4-(trifluoromethyl)phenyl]sulfonyl}octahydrocyclopenta[c]pyrrol-4-amine]	0.82	
Cc1ccc(C(=O)N[C@H]2CC[C@@H]3CN(c4cccc(C(F)(F)F)n4)C[C@@H]32)o1 [Example 576, 5-methyl-N-{(3aR,4S,6aS)-2-[6-(trifluoromethyl)pyridin-2-yl]octahydrocyclopenta[c]pyrrol-4-yl}-2-furamide]	1.08	
O=C(N[C@H]1CC[C@H]2CN(Cc3cccnc3)C[C@H]21)C(C1CCCCC1)C1CCCCC1 [Example 73, 2,2-dicyclohexyl-N-[(3aS,4S,6aR)-2-(pyridin-3-ylmethyl)octahydrocyclopenta[c]pyrrol-4-yl]acetamide]		3.26
O=C(N[C@H]1CC[C@H]2CN(Cc3ccccc3)C[C@H]21)C(C1CCCCC1)C1CCCCC1 [Example 15, N-[(3aS,4S,6aR)-2-benzyloctahydrocyclopenta[c]pyrrol-4-yl]-2,2-dicyclohexylacetamide]		16.5

Continued, values first:

IC50 [µM]	IC50 [1] [µM]	SMILES
> 30		CN[C@@H](CC(C)C)C(=O)N[C@H]1CC[C@@H]2CN(Cc3ccc(F)cc3)C[C@@H]21 [Example 381, N^1-[(3aR,4S,6aS)-2-(4-fluorobenzyl)octahydrocyclopenta[c]pyrrol-4-yl]-N^2-methyl-L-leucinamide]
1.11		CCC[C@H](NCC(C)(C)C)C(=O)N[C@@H]1CC[C@H]2CN(S(=O)(=O)c3ccc(C(F)(F)F)cc3)C[C@H]21 [Example 260, N^2-neopentyl-N^1-((3aS,4R,6aR)-2-{[4-(trifluoromethyl)phenyl]sulfonyl}octahydrocyclopenta[c]pyrrol-4-yl)-L-norvalinamide]
1.13		CN[C@@H](CC(C)C)C(=O)N[C@H]1CC[C@@H]2CN(c3ccc(F)c(C(F)F)c3)C[C@@H]21 [Example 769, N-{(3aR,4S,6aS)-2-[3-(difluoromethyl)-4-fluorophenyl]octahydrocyclopenta[c]pyrrol-4-yl}-N^2-methyl-L-leucinamide]
	14.4	CCC[C@H](N)C(=O)N[C@H]1CC[C@@H]2CN(Cc3ccc(C(F)(F)F)cc3)C[C@@H]21 [Example 382, N^1-{(3aR,4S,6aS)-2-[4-(trifluoromethyl)benzyl]octahydrocyclopenta[c]pyrrol-4-yl}-L-norvalinamide]
> 5.2		CC(C)C[C@@H](C(=O)N[C@@H]1CC[C@H]2CN(S(=O)(=O)C3CC3)C[C@H]21)N1CCCC1 [Example 347, (2S)-N-[(3aS,4R,6aR)-2-(cyclopropylsulfonyl)octahydrocyclopenta[c]pyrrol-4-yl]-4-methyl-2-pyrrolidin-1-ylpentanamide]
	3.79	CC(C)C(C(=O)N[C@H]1CC[C@H]2CN(Cc3ccccc3)C[C@H]21)c1ccccc1 (stereo partly drawn) [Example 14, N-[(3aS,4S,6aR)-2-benzyloctahydrocyclopenta[c]pyrrol-4-yl]-3-methyl-2-phenylbutanamide]
	1.83	CC(C)C[C@H](NC(=O)NC(C)(C)C)C(=O)N[C@@H]1CC[C@H]2CN(Cc3cccc(C(F)(F)F)c3)C[C@H]21 [Example 180, N^2-[(tert-butylamino)carbonyl]-N^1-{(3aS,4R,6aR)-2-[3-(trifluoromethyl)benzyl]octahydrocyclopenta[c]pyrrol-4-yl}-L-leucinamide]
	2.08	CC(C)C[C@@H](C(=O)N[C@@H]1CC[C@@H]2CN(Cc3ccccc3)C[C@@H]21)N(C)C(=O)OC(C)(C)C [Example 241]
> 9		CN[C@H]1CC[C@@H]2CN(S(=O)(=O)c3ccc(C(F)(F)F)cc3)C[C@@H]21 [Example 301, (3aR,4S,6aS)-N-methyl-2-{[4-(trifluoromethyl)phenyl]sulfonyl}octahydrocyclopenta[c]pyrrol-4-amine]
> 3		CN[C@@H](CO)C(=O)N[C@H]1CC[C@@H]2CN(c3ccc(C(F)(F)F)cc3)C[C@@H]21 [Example 749, N^2-methyl-N-{(3aR,4S,6aS)-2-[4-(trifluoromethyl)phenyl]octahydrocyclopenta[c]pyrrol-4-yl}-L-serinamide]
1.66		CN[C@@H](Cc1ccccc1)C(=O)N[C@H]1CC[C@@H]2CN(S(=O)(=O)c3ccc(C(F)(F)F)cc3Cl)C[C@@H]21 [Example 432]
2		CN[C@@H](CC(C)C)C(=O)N[C@@H]1CC[C@H]2CN(c3ccc(C(F)(F)F)cc3)C[C@H]21 [Example 740, N^2-methyl-N-{(3aS,4R,6aR)-2-[4-(trifluoromethyl)phenyl]octahydrocyclopenta[c]pyrrol-4-yl}-L-leucinamide]
> 30		CC(C)(C)C[C@H](N)C(=O)N[C@H]1CC[C@@H]2CN(C(=O)[C@@H](N)CC(C)(C)C)C[C@@H]21 [Example 464, 4-methyl-N^1-[(3aR,4S,6aS)-2-(4-methyl-L-leucyl)octahydrocyclopenta[c]pyrrol-4-yl]-L-leucinamide]

— patent publication US8691865B2 (AbbVie Inc., priority 2008, dated 2014)
